Where two headings read alike, the source gives them in different places.
Molecular target: human-thrombin (Homo sapiens, UniProt P00734)
Conditions: Example 2, thrombin 1 pM
Description: To yield liposomes with a diameter of ˜100 nm first the required lipids were solved in chloroform and mixed. In total 5 mg 2-Oleoyl-1-palmitoyl-sn-glycero-3-phosphocholine, 0.01 mg, 1,2-dioleoyl-sn-glycero-3-phosphoethanolamine-N-dibenzocyclooctyl and 0.005 mg 1,2-dipalmitoyl-sn-glycero-3-phosphoethanolamine-N-(lissamine rhodamine B sulfonyl) were mixed together. The lipid mixture was vacuum dried overnight. The dried lipids were hydrated in 1 ml HBS (150 mM NaCl, 20 mM/L HEPES at pH7.2) under gentle agitation. The lipid suspension was extruded through a PC-membrane with 100 nm pore size eleven times. Concentration of the liposomes was determined by light absorption at 544 nm and the concentration of the liposome solution was adjusted to 2.5 mg/ml. This equals a liposome concentration of approximately 30 nM.
To immobilize thrombin at the liposomes via click chemistry an azide-group was introduced to thrombin via NHS coupling. Therefore, 100 μL of human-thrombin at 2 mg/ml was mixed with 200 μL high salt PBS-buffer (10 mM Na2HPO4, 1.8 mM KH2PO4, 400 mM NaCl+33.5% Glycerol (v/v) at pH 7.4 and 13 μL NHS-PEG4-Azide at 10 mM. The mixture was incubated for 30 minutes at RT. The reaction was stopped by the addition of 500 μL high salt PBS-buffer (10 mM Na2HPO4, 1.8 mM KH2PO4, 400 mM NaCl+33.5% Glycerol (v/v) at pH 6.6.
1.5 μL of the thrombin-azide were mixed with 48.5 μL icecold CHES-buffer (20 mM CHES, 150 mM NaCl) at pH 8.5 and subsequently 50 μL of the liposome solution is added. This mix was stored for at least 30 minutes on ice. 10 μL of the reaction mix was diluted with 990 μL icecold CHES-buffer (20 mM CHES, 150 mM NaCl) at pH 8.5.
After curing, into each well of the microplate 10 μL of a solution containing 1 mg/ml PLL-g-PEG and 1 mg/ml PLL-g-PEG-biotin are added. The plate was incubated for at least 1 h under gentle orbital agitation. After the incubation each well was washed 10-times with HBS-buffer. The dilution ratio of every washing step was at least 1:10. […]
The single molecule microscope was based on a Nikon Ti-E base. […] Images are recorded via a [sequence] […]

N=C(N)c1ccc(CNC(=O)[C@@H]2CCN2C(=O)[C@H](NCC(=O)O)C2CCCCC2)cc1 [melagatran]
kobs (one hundred wells summed, melagatran 7.4 nM (FIG. 6)): 0.22 s⁻¹
kobs (single well, melagatran 7.4 nM (FIG. 4)): could not be reliably fitted
kobs (two wells summed, melagatran 7.4 nM (FIG. 5)): 0.43 s⁻¹
